Where “and” joins values, the source holds several entries; their conditions need not be identical. Identical values can stand only once. Entries after “also recorded” stand apart in the source; their conditions may differ. Like-named read-outs stand apart in the source and are kept apart here.
Key:
[1] = biological target: Human Androgen Receptor (Homo sapiens (Human), UniProt P10275); experiment: Androgen receptor assay: [3H]R1881 displacement, cytosol of HEK-293 cells transfected with hAR (hydroxylapatite assay); assay type: binding; settings: for Human Androgen Receptor Binding RBA (%) R1881 = 100: relative binding affinity; for affinity for the androgen receptor (in words): SAR discussion
[2] = biological target: Rat Androgen Receptor (Rattus norvegicus (Rat), UniProt P15207); experiment: Androgen receptor assay: [3H]R1881 displacement, rat prostate cytosol; assay type: binding; settings: for Rat Androgen Receptor Binding RBA (%) R1881 = 100: relative binding affinity, prostate cytosol
Description: On the morning of the binding assay, ventral prostates collected from 24 h-gonadectomized rats were homogenized in buffer A (1 g of tissue in 5 mL) and the homogenate was centrifuged as described above.
Androgen binding is measured using the hydroxylapatite (HAP) assay. In brief, the radioactive steroid [^3H]R1881 solubilized in ethanol is diluted with buffer B (10 mM Tris-HCl, 1.5 mM EDTA disodium salt, 10 mM α-monothioglycerol, pH 7.4). Aliquots of the cell or prostate cytosol preparation (0.1 ml) are then incubated with 5 nM [^3H]R1881 (0.1 ml, ˜100 000 cpm) in the presence or absence of the indicated concentrations of unlabeled compounds (0.1 ml, prepared in buffer B containing 30% ethanol) for 16-18 h at 0-4° C. Triamcinolone acetonide (TAC; 100 nM) is added to mask progesterone receptors. Unbound steroids are separated by incubation for 40 min at 0-4° C. with 0.3 ml HAP prepared in buffer P (50 mM Tris-HCl, 10 mM KH2PO4, pH 7.4). After incubation with HAP and 10 min of centrifugation at 1000×g, the pellet is washed 3 times with 1 ml of buffer P. Thereafter, the radioactivity is extracted from the pellet by incubation at room temperature for 60 min with 1 ml of ethanol. After centrifugation, the supernatant is decanted into a scintillation vial and the pellet is extracted again with ethanol. After the addition of scintillation liquid, the radioactivity is measured in a liquid scintillation counter.
Relative binding affinity (RBA) was calculated by the following formula: RBA (%) [IC50(R1881)/IC50 (compound)]×100 B—In Vitro Assay of Androgenic/Antiandrogenic Activity

[3] = tested on: Shionogi mouse mammary carcinoma cells; experiment: In vitro androgenic/antiandrogenic activity: proliferation of Shionogi cells with or without DHT; assay type: cell-based
[4] = tested on: PSA levels in human prostatic carcinoma LNCaP cells; experiment: Prostate specific antigen (PSA) in LNCaP cells with or without R1881; assay type: cell-based
Description: LNCaP cells were cultured as previously described (Qi et al. 2001). In brief, the LNCaP cells were cultured for 6 days in 1.0 ml RPMI 1640 supplemented with hormone-depleted 0.25% FCS before each experiment. At the start of the experiment, half of the medium (0.5 ml) was replaced with 0.5 ml of identical medium containing the appropriate concentrations of tested compounds, in the presence or absence of 1.0 nM of R1881. After 72 h of incubation of LNCaP cells with compounds, 0.5 ml of culture medium was removed for PSA determination. PSA levels were measured using the PSA [^125I] IRMA KIT (REF: RK-10CT) from Izotop (Institute of Isotopes Ltd, Budapest, Hungary).

[5] = tested on: castrated (CX) immature male rats; experiment: Systemic androgenic (agonistic) activity in orchidectomized (CX) immature male rats; assay type: in vivo, rat; settings: for CX Agonistic activity % Stimulation Bulbo / CX Agonistic activity % Stimulation SV / CX Agonistic activity % Stimulation Prostate: 0.1 mg/rat/po, 7 days; for CX Agonistic activity % Stimulation Bulbo: bulbocavernosus muscles weight; for CX Agonistic activity % Stimulation SV: seminal vesicles weight; for CX Agonistic activity % Stimulation Prostate: ventral prostate weight
[6] = tested on: Androgen Receptor; experiment: Overall classification (antiandrogen / SARM) in the models studied
[7] = Oral absorption, Experiment 2: plasma, intraprostatic and intramuscular concentrations after 0.5 mg EM-9150/animal in castrated male rats; assay type: in vivo; settings: Sprague-Dawley, rat, 0.5 mg/animal; for concentration at 7 h: po
Description: Castrated male Sprague-Dawley rats (Crl:CD(SD)Br) weighing 275-375 g were used for pharmacokinetic studies. Animals were fasted (access to water only) from around 16 h00 the afternoon prior to the dosing day.
Blood samples (˜0.5 mL/timepoint) were collected by jugular venipuncture on animals under isoflurane anesthesia at 1, 2, 3, 4, 7 and 24 h post-dosing. Blood samples were put into tubes containing EDTA(K3) as anticoagulant and centrifuged at 4° C. for 10 min at 1700-2400 g. The resulting plasma was frozen on dry ice and kept at −80° C. pending analysis. […] Prostates and bulbocavernosus muscles were frozen in liquid nitrogen and kept at −80° C. until being used. A buffer and an ethanol-acetone solution were added to the tissue and homogenized with a Polytron. The supernatant was collected, evaporated to dryness and reconstituted in buffer.
Intraprostatic and intramuscular concentrations of the compounds were also determined by LC-MS/MS.

[8] = Mus musculus, read-out: Shionogi Antiandrogenic Activity IC50, DHT (0.3 nM)-stimulated cell number

Rat Androgen Receptor, sequence (P15207 whole entry, looked up): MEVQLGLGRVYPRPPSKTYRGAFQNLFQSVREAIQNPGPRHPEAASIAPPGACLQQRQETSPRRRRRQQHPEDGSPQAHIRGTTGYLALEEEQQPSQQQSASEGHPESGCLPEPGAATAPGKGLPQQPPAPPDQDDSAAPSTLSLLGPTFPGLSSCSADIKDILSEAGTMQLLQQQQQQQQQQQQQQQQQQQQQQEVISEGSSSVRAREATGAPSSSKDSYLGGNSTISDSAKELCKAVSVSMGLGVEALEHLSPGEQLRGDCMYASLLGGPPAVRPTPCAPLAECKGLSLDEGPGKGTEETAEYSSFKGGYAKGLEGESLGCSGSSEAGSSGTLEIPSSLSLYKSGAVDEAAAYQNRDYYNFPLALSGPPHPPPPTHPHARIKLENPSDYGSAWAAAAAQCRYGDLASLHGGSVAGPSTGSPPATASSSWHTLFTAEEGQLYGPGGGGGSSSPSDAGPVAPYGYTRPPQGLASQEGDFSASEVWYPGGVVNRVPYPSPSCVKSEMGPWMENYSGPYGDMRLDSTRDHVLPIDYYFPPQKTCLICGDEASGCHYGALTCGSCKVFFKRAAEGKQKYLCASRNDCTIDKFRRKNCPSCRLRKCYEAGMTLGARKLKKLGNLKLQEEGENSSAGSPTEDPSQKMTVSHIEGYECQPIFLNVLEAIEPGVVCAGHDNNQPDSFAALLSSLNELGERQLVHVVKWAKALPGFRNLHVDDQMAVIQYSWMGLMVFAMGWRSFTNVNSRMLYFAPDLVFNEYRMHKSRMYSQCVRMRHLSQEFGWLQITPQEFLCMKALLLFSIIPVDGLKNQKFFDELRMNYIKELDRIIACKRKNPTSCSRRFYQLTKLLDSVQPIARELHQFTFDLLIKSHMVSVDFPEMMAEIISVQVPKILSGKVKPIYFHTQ
Human Androgen Receptor, sequence (P10275 whole entry): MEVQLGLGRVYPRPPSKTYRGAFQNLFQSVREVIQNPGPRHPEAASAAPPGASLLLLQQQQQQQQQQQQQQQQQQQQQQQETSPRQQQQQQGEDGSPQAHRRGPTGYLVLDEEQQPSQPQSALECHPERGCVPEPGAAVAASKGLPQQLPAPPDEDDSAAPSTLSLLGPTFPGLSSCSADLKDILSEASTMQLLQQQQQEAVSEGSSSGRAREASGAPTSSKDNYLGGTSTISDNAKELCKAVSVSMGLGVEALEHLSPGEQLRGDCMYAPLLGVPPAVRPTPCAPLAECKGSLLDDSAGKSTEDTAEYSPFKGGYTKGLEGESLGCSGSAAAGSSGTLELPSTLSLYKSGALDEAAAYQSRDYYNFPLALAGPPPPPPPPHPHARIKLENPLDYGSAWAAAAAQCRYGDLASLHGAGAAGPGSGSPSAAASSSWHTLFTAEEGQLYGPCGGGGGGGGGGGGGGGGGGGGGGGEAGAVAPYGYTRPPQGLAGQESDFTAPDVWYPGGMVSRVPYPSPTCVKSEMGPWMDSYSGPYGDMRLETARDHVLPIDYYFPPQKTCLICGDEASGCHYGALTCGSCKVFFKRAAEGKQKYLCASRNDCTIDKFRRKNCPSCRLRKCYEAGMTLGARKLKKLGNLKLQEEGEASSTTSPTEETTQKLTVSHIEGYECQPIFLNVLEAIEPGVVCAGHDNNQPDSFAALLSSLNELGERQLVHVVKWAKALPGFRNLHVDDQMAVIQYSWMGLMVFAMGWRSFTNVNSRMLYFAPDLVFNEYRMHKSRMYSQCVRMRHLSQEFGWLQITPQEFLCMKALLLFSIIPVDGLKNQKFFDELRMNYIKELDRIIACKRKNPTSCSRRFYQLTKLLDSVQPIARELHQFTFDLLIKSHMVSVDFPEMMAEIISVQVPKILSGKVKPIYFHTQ

CC(C)NCc1ccc(OCCCN2C(=S)N(c3ccc(C#N)c(C(F)(F)F)c3)C(=O)C2(C)C)cc1 [EM-7105, reference compound]
Human Androgen Receptor Binding RBA (%) R1881 = 100 ([1]; transfected cells): 41% and 41 ± 30%
times more binding to the human androgen receptor than the corresponding hydantoin ([1]; thiohydantoin versus hydantoin (EM-9052 vs EM-9150; EM-7105 vs EM-7333)): around 140 times
Rat Androgen Receptor Binding RBA (%) R1881 = 100 [2]: 3.9%
IC50 ([3]; DHT (0.3 nM)-stimulated cell number, read-out: Shionogi Antiandrogenic Activity IC50): 9.4 nM
LNCaP Cells Antiandrogenic activity (PSA) % inhibition at 10^−7M ([4]; R1881-stimulated, 10^−7M of compound): 26%

Cc1c(N2C(=O)C(C)(C)N(CCCOc3ccc(-c4ccncc4)cc3)C2=S)ccc(C#N)c1C(F)(F)F [EM-8691]
affinity for the androgen receptor (in words) [1]: high affinity
Human Androgen Receptor Binding RBA (%) R1881 = 100 ([1]; […]): 525 ± 362 (n = 3) %
IC50 [3, 8]: > 100 nM
CX Agonistic activity % Stimulation Bulbo [5]: 163%
CX Agonistic activity % Stimulation SV [5]: 24%
CX Agonistic activity % Stimulation Prostate [5]: 39%
classification as antiandrogen or SARM (in words) [6]: potent SARM

Cc1c(N2C(=O)C(C)(C)N(CCCOc3ccc(-c4ccncc4)c(C(F)(F)F)c3)C2=S)ccc(C#N)c1C(F)(F)F [EM-8821]
affinity for the androgen receptor (in words) [1]: decreased affinity
Human Androgen Receptor Binding RBA (%) R1881 = 100 ([1]; transfected cells): 28.3%
IC50 [3, 8]: 11.5 nM
CX Agonistic activity % Stimulation Bulbo [5]: 74%
CX Agonistic activity % Stimulation SV [5]: 22%
CX Agonistic activity % Stimulation Prostate [5]: 22%
classification as antiandrogen or SARM (in words) [6]: weaker SARM

CC1(C)C(=O)N(c2ccc(C#N)c(Cl)c2)C(=O)N1CCCOc1ccc(-c2ccncc2)cc1Cl [EM-9150]
times more potent than bicalutamide to displace R1881 from the human AR ([1]; versus bicalutamide): 247 times
Rat Androgen Receptor Binding RBA (%) R1881 = 100 [2]: 6.5%
times more potent than OH-flutamide in the rat AR assay ([2]; versus OH-flutamide): 65 times
times more potent than bicalutamide in the rat AR assay ([2]; versus bicalutamide): 32 times
stimulation at 10^−7M on basal Shionogi cell proliferation (in words) ([3]; basal (no DHT), 10^−7M): absence of stimulation
inhibition at 0.1 µM ([4]; Homo sapiens, LNCaP, read-out: LNCaP Cells Antiandrogenic activity (PSA) % inhibition at 10^−7M, R1881-stimulated, 10^−7M of compound): 57%
times more potent than bicalutamide in blocking R1881-stimulated PSA secretion ([4]; LNCaP, versus bicalutamide): 11.0 times and 10 times
stimulation at 10^−7M of basal PSA levels in LNCaP cells (in words) ([4]; basal (no R1881), 10^−7M): absence of stimulation; also recorded: no stimulation
times more inhibition of PSA levels in human LNCaP cells compared to the thiohydantoins ([4]; versus thiohydantoins of WO 2006/133567): ≥ 2 times
concentration at 7 h ([7]; bulbocavernosus muscles, read-out: intramuscular concentration): 1.2 ng/g
concentration at 7 h ([7]; plasma, read-out: plasma concentration): 0.9 ng/mL
Kp at 7 h ([7]; prostate / plasma, oral, read-out: concentration in the rat prostate versus plasma): ~3
concentration at 7 h ([7]; ventral prostate, read-out: intraprostatic concentration): 2.9 ng/g
CX Agonistic activity % Stimulation Bulbo [5]: 1%
CX Agonistic activity % Stimulation SV [5]: 0%
CX Agonistic activity % Stimulation Prostate [5]: 0%
agonistic activity on ventral prostate weight (in words) ([5]; daily oral dosing for 7 days, immature castrated rat): no agonistic activity
classification as antiandrogen or SARM (in words) [6]: antiandrogens

Reference: patent publication US9682960B2 (priority 2013, dated 2017)
